Reference: patent publication US20250186438A1, “TREATMENT OF CLEAR CELL RENAL CELL CARCINOMA” (RACE ONCOLOGY LTD, priority 2022, published 2025)
Counter-ions that a name gives are not always drawn. Like-named read-outs stand apart in the source and are kept apart here.

Tests used:
[1] = tested on: RCC4 EV cells (VHL(−) mutant); test: Resazurin cell viability assay (combination synergy analysis; cytotoxic IC50); details: Homo sapiens, RCC4, 72 h, read-out: Cytotoxic IC50
Procedure: (§1) Cell viability was determined using a resazurin metabolic activity assay.
(§2) Resazurin is metabolised into the red-fluorescent resorufin by metabolically active cells. […] Graphpad Prism 9 software was used to generate graphs. Drug IC50 values were determined by cubic spline-lowess regression analysis using Prism 9. At least three independent replicates were performed for each cell line and each drug combination, and data is represented as mean±standard error of the mean (SEM). The culture conditions for each cell line are described below.
(§3) Detail on each of the methods is provided below.
(§4) Using the Henderson-Hasselbalch, Michaelis-Menten, Scatchard, and Hill equations, Chou and Talaly derived the “median-effect” equation to model the median effect dose and sigmoidicity of the dose-response curve, using the inputted doses and corresponding dose-effects. Chou and Talalay also coined the term “CombinationIndex (CI)” to evaluate the degree of synergy between two compounds, defined as: […]
(§5) Within SynergyFinder the Bliss model was used. This model quantifies the degree of synergy as the multiplicative effect of single drugs as if they acted independently. This independence model assumes a stochastic process in which two drugs elicit their effects independently, and the expected combination effect can be calculated based on the probability of independent events.

[2] = tested on: RCC4 EV cells (VHL(−) mutant); test: Clonogenicity assay (colony formation); assay type: cell-based; details: Homo sapiens, ccRCC, VHL status Mut, 96 h drug then 96 h drug-free, read-out: Clonogenic IC50
Procedure: (§6) Clonogenicity assays—Clonogenicity assays were used to determine the colony-forming ability of cells treated with Zantrene. RCC4EV and RCC4 VHL Cells were seeded into 6-well plates at 1000 cells/well and allowed to adhere for 24 h. […] Drug-containing media was removed and replaced with freshmedia (without drug) and cultured for an additional 96 h to allow the formation of cell colonies. At endpoint, media was removed from wells and cells washed with cold PBS twice. Cells were fixed with ice-cold methanol for 10 minutes on ice followed immediately by staining with crystal violet solution (0.5% crystal violet, 25% methanol in PBS) at room temperature. Excess crystal violet solution was washed away and pictures of plates capturedon a ChemiDoc MP Imaging System (Bio-Rad). Images were analysed using the ColonyArea plugin [Guzman C. et al (2014), “ColonyArea: an ImageJ plugin to automatically quantify colony formation in clonogenic assays”, PLoS One, 9(3):e92444] for ImageJ [Schneider C. A. et at (2012), “NIH Image to ImageJ: 25 years of image analysis”, Nat Methods 9(7):671-675] and the percent area of the well filled by colonies determined and presented as % of untreated cells using Prism 9. Four independent replicates were performed for each cell line and data is represented as mean±SEM.

[3] = tested on: RCC4 VHL cells (VHL rescue line); test: Clonogenicity assay (colony formation); assay type: cell-based; details: Homo sapiens, ccRCC, VHL status Mut + WT, 96 h drug then 96 h drug-free, read-out: Clonogenic IC50
Procedure: as §6

[4] = cited from earlier work
[5] = tested on: 786-O cells; test: Resazurin cell viability assay, drug combinations with synergy analysis; assay type: cell-based, Human; details: 786-0 cell line; each drug in combination with zantrene; FIG. 1-3
Procedure: as §1, §2, §3
It estimates the expected additive effect of two drugs using the fractional product of the effect of each drug alone, ie:
An observed Fa(Drug1+Drug2) value greater than the expected Fa(Drug1+Drug2) value result indicates synergy, whereas an observed Fa(Drug1+Drug2) lower than the expected value indicates antagonism.
as §4, §5

[6] = 5-day schedule of 60 min infusions
[7] = another trial, doses of 80-250 mg/m2
[8] = patients, 90 min infusion at 260 mg/m2, biphasic elimination
[9] = patients, 90 min infusion at 260 mg/m2
[10] = single dose study, triphasic elimination, first of three
[11] = single dose study, triphasic elimination, second of three

Q: With `C(=NNC1=NCCN1)c1c2ccccc2c(C=NNC2=NCCN2)c2ccccc12` [bisantrene, 9,10-anthracenedicarboxaldehyde bis[(4,5 dihydro-1H-imidazo-2-yl)hydrazine]dihydrochloride] as the molecule, how does the IC50 [1] read?
A: The IC50 was 907 nM.

Q: What about the IC50 [2] of the same molecule?
A: The IC50 was 167 nM.

Q: And the IC50 [3]?
A: Its IC50 is 483 nM.

Q: What about the “Dose excreted in the urine” value [4, 6] of the same molecule?
A: Its value is 7.1%.

Q: And the “t½ α” value [4, 6]?
A: Its value is 54 min.

Q: What about the “t½ β” value [4, 6] of the same molecule?
A: The value was 9.7 h.

Q: And the Plasma concentration ([4]; 72 h infusion study, dose of 56 mg/m2)?
A: The Plasma concentration was 12 ± 6 ng/mL.

Q: And the Plasma concentration ([4]; 72 h infusion study, dose of 260 mg/m2)?
A: Its Plasma concentration is 55 ± 8 ng/mL.

Q: And the Plasma clearance ([4]; 72 h infusion study)?
A: Its Plasma clearance is 1306±179 mL/min/m2.

Q: And the “Calculated volume of distribution” value [4, 7]?
A: Its value is 42.1 ± 5.9 L/kg.

Q: And the Clearance [4, 7]?
A: Its Clearance is 1045.5 ± 51.0 mL/kg/h.

Q: And the Initial half-life [4, 7]?
A: The Initial half-life was 36 min.

Q: What about the Terminal half-life [4, 7] of the same molecule?
A: Its Terminal half-life is 24.7 h.

Q: What about the “Administered dose excreted unchanged in the urine” value ([4]; in 24 h, 90 min infusion at 260 mg/m2) of the same molecule?
A: Its value is 11.3%.

Q: And the “Urinary excretion of the dose” value ([4]; in 24 h, 72 h infusion study)?
A: The value was 4.6%.

Q: And the Volume of distribution ([4]; one report, interpreted as tissue sequestration with depot effect)?
A: The Volume of distribution was 687 L/m2.

Q: And the “Administered dose found in the urine” value ([4]; over 96 h, doses of 80-250 mg/m2)?
A: The value was 3.4±1.1%.

Q: What about the Initial half-life [4, 8] of the same molecule?
A: The Initial half-life was 65 ± 15 min.

Q: And the Terminal half-life [4, 8]?
A: Its Terminal half-life is 19.03 ± 3.77 h.

Q: What about the Plasma clearance [4, 9] of the same molecule?
A: Its Plasma clearance is 735 mL/min/m2.

Q: And the “Steady state volume of distribution (Vdss)” value [4, 9]?
A: The value was 1845 L/m2.

Q: What about the “t½ α” value [4, 10] of the same molecule?
A: The value was 3.44 min.

Q: And the “t½ β” value [4, 10]?
A: The value was 1.33 h.

Q: What about the “t½ γ” value [4, 10] of the same molecule?
A: The value was 26.13 h.

Q: And the “t½ α” value [4, 11]?
A: The value was 3 min.

Q: And the “t½ β” value [4, 11]?
A: The value was 1 h.

Q: And the “t½ γ” value [4, 11]?
A: The value was 8 h.

Q: For `CO[C@H]1C[C@@H]2CC[C@@H](C)[C@@](O)(O2)C(=O)C(=O)N2CCCC[C@H]2C(=O)O[C@H]([C@H](C)C[C@@H]2CC[C@@H](OCCO)[C@H](OC)C2)CC(=O)[C@H](C)/C=C(\C)[C@@H](O)[C@@H](OC)C(=O)[C@H](C)C[C@H](C)/C=C/C=C/C=C/1C` [everolimus], which “Combination effect with zantrene, method of Webb analysis” value (“Combination effect with zantrene” below) [5] is on record?
A: Its value is “Synergy”.

Q: For `COc1cc2nccc(Oc3ccc(NC(=O)NC4CC4)c(Cl)c3)c2cc1C(N)=O` [lenvatinib], which “Combination effect with zantrene” value [5] is on record?
A: Its value is “strongest synergy”.

Q: With `CNC(=O)c1cc(Oc2ccc(NC(=O)Nc3ccc(Cl)c(C(F)(F)F)c3)cc2)ccn1` [sorafenib] as the molecule, how does the “Combination effect with zantrene” value [5] read?
A: Its value is “Synergy”.
